Inconclusive results are not listed. Active and inactive are the calls of the source.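 Rule for the calls: active = IC50 no more than tenfold above the highest tested concentration; inconclusive = flat fit with activity between 30% and 70%, or an invalid poor fit; inactive = IC50 beyond tenfold over the top concentration.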

In this assay the target is Zinc finger protein mex-5 (Caenorhabditis elegans) (UniProt Q9XUB2). The assay can be described thus: inhibitors of MEX-5 RNA binding, dose response, biochemical, fluorescence polarization, MBP-MEX-5, FITC-TCR2 RNA (AID 2739). Particulars: MBP-MEX-5 / FITC-TCR2 RNA fluorescence polarization, 1 h. In general terms: In fluorescence polarisation assays a small probe gives low polarisation when free and higher when bound to something large.
Sequence of Zinc finger protein mex-5 (Caenorhabditis elegans) (Q9XUB2 whole entry, looked up): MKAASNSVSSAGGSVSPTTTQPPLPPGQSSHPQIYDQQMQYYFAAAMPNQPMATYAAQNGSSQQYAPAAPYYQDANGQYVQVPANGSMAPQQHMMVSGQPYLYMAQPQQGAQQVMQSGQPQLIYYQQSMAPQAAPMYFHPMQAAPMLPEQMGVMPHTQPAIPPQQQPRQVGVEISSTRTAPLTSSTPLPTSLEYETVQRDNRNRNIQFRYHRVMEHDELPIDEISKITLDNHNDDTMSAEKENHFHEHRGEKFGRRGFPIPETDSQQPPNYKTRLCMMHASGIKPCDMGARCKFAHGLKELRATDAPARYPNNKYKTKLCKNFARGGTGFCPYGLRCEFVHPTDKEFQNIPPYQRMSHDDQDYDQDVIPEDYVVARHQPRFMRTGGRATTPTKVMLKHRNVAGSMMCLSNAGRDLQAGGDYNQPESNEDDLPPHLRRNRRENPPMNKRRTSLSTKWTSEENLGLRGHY
In the case of `Cc1nc2ccccc2c(=O)n1/N=C/c1ccc(O)c(O)c1O`, the IC50 – broadly, the midpoint of a concentration-inhibition curve – was 0.924 µM. As to `CCCCN(C)C(=O)CCC(=O)NNc1nc2ccccc2c2nc(C)nn12`, the IC50 was 4.17 µM. The value for `Cc1ncc(CO)c(/C=N/NC(=O)c2cc(Br)ccc2O)c1O` was 7.89 µM; that for `NC(CO)C(=O)NNCc1ccc(O)c(O)c1O` (stereo not drawn) was > 135 µM (inactive); that for `N=c1c(C(=O)NC2CCCCC2)cc2c(=O)n3ccccc3nc2n1Cc1ccc(F)cc1` was > 135 µM (inactive). Regarding `CCOC(=O)c1cc(CC)sc1/N=C/c1c(O)[nH]c(=S)[nH]c1=O`, the IC50 is > 350 µM (inactive). The value for `Cn1ncc2c(NNC(=O)Cc3ccccc3)ncnc21` was 1.31 µM; that for `COCCNC(=O)CCC(=O)NNc1nc2ccccc2c2nc(C)nn12` was 1.49 µM. As to `Cc1cnc(C(=O)NNC(=O)c2ccc(Br)cc2)cn1`, the IC50 was 1.07 µM. Turning to `O=C(NNC(=O)c1ccccc1[N+](=O)[O-])c1csc(N2CCOCC2)n1`, the IC50 was 1.31 µM.

In the case of `CC1=C(C(=O)OCc2ccccc2)C(c2ccccc2[N+](=O)[O-])NC(=O)N1C` (stereo not drawn), the IC50 is 32.4 µM.

As to `CCOCCCNC(=O)CCC(=O)NNc1nc2ccccc2c2nc(C)nn12`, the half-inhibitory concentration (IC50) was 2.28 µM. The value for `COc1ccc(-c2cn[nH]c2-c2ccc(OCC(=O)NN)cc2O)cc1OC` was 1.57 µM; that for `Cc1ccc(N2C(=O)NC(=O)/C(=C\c3cc(C)n(-c4ccc(C(=O)O)cc4)c3C)C2=O)cc1` was > 135 µM (inactive); that for `COCCCNC(=O)CCC(=O)NNc1nc2ccccc2c2nc(C)nn12` was 1.64 µM.

On to `CCN(CC)c1ccc(/C=C2\C(=O)NC(=S)N(c3ccc(OC)cc3OC)C2=O)o1`, for which the IC50 is > 135 µM (inactive). Consider `Cc1nc(N=Nc2ccc(O)cc2)n[nH]1`, for which the IC50 is 16.1 µM.

For the compound `N=c1c(C(=O)NC2CCCCC2)cc2c(=O)n3ccccc3nc2n1Cc1cccnc1`, the IC50 is > 350 µM (inactive). `CCOC(=O)C1CCN(C(=O)CCC(=O)NNc2nc3ccccc3c3nc(C)nn23)CC1`: the IC50 is 2.39 µM. The value for `O=c1c(O)cccc2cc(O)c(O)c(O)c12` was 2.03 µM. Regarding `CCc1ccc(C(=O)NNC(=O)c2ccc(=O)n(C)n2)cc1`, the IC50 is 9.25 µM. The value for `CCN(CC)c1ccc(/C=C2\C(=O)NC(=S)N(C)C2=O)o1` was > 135 µM (inactive); that for `CCc1ccccc1N1C(=O)/C(=C\c2ccc(N3CCN(C)CC3)o2)C(=O)NC1=S` was > 135 µM (inactive).

The record behind these values is PubChem BioAssay AID2739 (Broad Institute, 2010).
